From article PMC8881573, “Inhibition of SRP-dependent protein secretion by the bacterial alarmone (p)ppGpp” (Nature Communications, 2022)

Assays:
[1] = molecular target: T1, (Ec)Ffh-NG (Escherichia coli, UniProt P0AGD7); test: Isothermal titration calorimetry (ITC) of nucleotide binding; parameters: species or system E. coli
T1 construct: purified NG domains of (Ec)Ffh, (Ec)FtsY and (Bs)Ffh; His6 (C); made in house; host or cells: E. coli BL21 (DE3)
Experimental: Ligands and proteins (purified NG domains of (Ec)Ffh, (Ec)FtsY and (Bs)Ffh) were diluted with a buffer containing 20 mM HEPES-Na (pH 7.5), 200 mM NaCl, 20 mM MgCl2 and 20 mM KCl. The NG domains of (Ec)Ffh, (Ec)FtsY and (Bs)Ffh were titrated in the sample-cell at a nominal concentration of 25 µM each. The nucleotides GDP, GTP, ppGpp and pppGpp (Jena Bioscience, Germany) were placed in the syringe and their concentrations were predetermined by absorbance at 252 nm to saturate the protein samples during the titrations. All the measurements were performed at 25 °C with the instrument MicroCal PEAQ-ITC (©Malvern Panalytical) with a method consisting of 13 injections (first 0.4 µL, and the rest 3 µL each) and 150 s of spacing. The raw data (see source) were processed with the MicroCal PEAQ-ITC Analysis Software (©Malvern Panalytical) using the “one set of sites” models.

[2] = molecular target: T2, SRP/FtsY (Escherichia coli, UniProt P0AGD7+P10121); test: Floatation analysis of co-translational membrane targeting of RNCs to SecYEG-proteoliposomes; type: biochemical, E. coli; conditions: 50 µM final concentration, 10 µM GTP
T2 construct: (Ec)Ffh (full-length) was concentrated on a 10 kDa centrifugal filter; (Ec)FtsY (full-length) was re-buffered in HT buffer; His-tag; made in house; host or cells: E. coli
T2 sequence (P0AGD7 whole entry): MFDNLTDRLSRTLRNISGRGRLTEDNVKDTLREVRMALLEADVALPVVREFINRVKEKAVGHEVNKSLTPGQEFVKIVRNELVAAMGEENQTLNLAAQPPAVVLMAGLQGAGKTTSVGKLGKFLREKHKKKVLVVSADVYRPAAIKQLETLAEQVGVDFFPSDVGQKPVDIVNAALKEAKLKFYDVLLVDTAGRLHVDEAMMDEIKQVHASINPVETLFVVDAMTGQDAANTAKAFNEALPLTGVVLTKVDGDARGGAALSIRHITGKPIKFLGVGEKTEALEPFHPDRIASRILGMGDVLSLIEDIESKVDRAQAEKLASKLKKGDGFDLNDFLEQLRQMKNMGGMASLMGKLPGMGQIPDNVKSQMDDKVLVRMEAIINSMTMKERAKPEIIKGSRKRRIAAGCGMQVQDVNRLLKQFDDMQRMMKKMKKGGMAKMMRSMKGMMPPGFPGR
T2 sequence (P10121 whole entry): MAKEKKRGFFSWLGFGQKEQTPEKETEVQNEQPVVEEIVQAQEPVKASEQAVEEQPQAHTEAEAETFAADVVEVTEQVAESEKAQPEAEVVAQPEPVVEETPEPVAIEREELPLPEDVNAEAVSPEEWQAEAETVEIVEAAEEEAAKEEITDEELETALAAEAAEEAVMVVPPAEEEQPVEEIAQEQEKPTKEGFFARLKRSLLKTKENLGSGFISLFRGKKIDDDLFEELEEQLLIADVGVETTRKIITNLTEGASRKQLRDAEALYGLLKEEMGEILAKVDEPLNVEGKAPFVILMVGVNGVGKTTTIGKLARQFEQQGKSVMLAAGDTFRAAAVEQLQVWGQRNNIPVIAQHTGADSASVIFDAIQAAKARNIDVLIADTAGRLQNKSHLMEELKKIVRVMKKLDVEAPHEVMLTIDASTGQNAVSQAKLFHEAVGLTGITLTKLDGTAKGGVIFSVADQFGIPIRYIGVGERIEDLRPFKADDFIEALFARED
Experimental: For in vitro synthesizing FtsQ- and LepB-RNCs, the T7-dependent expression vectors pKSM-FtsQ and pKSM-LepB were used[37],[79]. In brief, the first 102 amino acids of LepB, and the first 120 amino acids of FtsQ were fused to the SecM stalling sequence and cloned into the pET19b vector. In vitro synthesis was performed in a coupled transcription/translation system as described for YohP. After in vitro synthesis, the RNCs were incubated with INVs (1 µL), liposomes (2 µL), or SecYEG-proteoliposomes (2 µL; 100 ng SecYEG µL^−1) in floatation buffer (50 mM triethanolamine acetate, pH 8.0; 10 µM GTP, 10 mM magnesium acetate, 70 mM potassium acetate; 250 mM sucrose and 1 mM DTT) for 15 min at 25 °C. When indicated, SRP/FtsY (20 ng µL^−1 each) and ppGpp or pppGpp (50 µM final concentration) was present during incubation. Membrane binding of RNCs was assayed by floatation analyses. The reaction mixture was adjusted to 1.6 M sucrose (final volume 100 µL) and overlaid with 200 µL of 1.25 M sucrose and 100 µL 0.25 M sucrose, each prepared in floatation buffer. Following centrifugation in a TLA 100.2 rotor (Beckmann-Coulter) at […] for 90 min, the upper 200 µL of the gradient, containing the membrane fraction (MF) were withdrawn and precipitated with 10% (w/v) TCA (final concentration). The pelleted (non-bound soluble fraction, SF) RNCs were resuspended in the remaining 200 µL of the gradient and TCA precipitated. Samples were subsequently analyzed by 15% SDS-PAGE and autoradiography. RNC binding to membranes was quantified by using the ImageQuant (GE Healthcare, München, Germany) software. The experiments were performed at least three times as independent experiments and representative images are shown. Mean values and SEM values were determined by using either Excel (Microsoft Corp.) or GraphPad Prism (GraphPad Prism Corp. San Diego).

[3] = molecular target: T3, full-length (Ec)Ffh and (Ec)FtsY-NG (Escherichia coli, UniProt P0AGD7+P10121); test: GTPase activity (GTP hydrolysis, HPLC); type: biochemical, E. coli; conditions: alarmone at concentrations equimolar to the GTP substrate (1 mM) or higher; with or without 4.5S RNA, ΔEspP signal peptide, C12E8
T3 construct: GTPase activity of full-length (Ec)Ffh and the NG domain of (Ec)FtsY was assayed; His-tag; His6 (C); made in house; host or cells: E. coli BL21 (DE3)
T3 sequence (P0AGD7 whole entry, the tested form may be a part): as the sequence (P0AGD7 whole entry) above
T3 sequence (P10121 197-497): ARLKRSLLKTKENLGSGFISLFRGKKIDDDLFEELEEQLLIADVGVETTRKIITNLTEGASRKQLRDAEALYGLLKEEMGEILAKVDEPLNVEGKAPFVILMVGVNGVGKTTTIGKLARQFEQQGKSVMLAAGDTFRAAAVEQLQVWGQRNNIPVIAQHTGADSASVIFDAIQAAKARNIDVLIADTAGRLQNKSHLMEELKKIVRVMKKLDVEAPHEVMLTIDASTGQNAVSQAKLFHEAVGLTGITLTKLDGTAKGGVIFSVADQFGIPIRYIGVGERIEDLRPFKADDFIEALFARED
Experimental: GTPase activity of full-length (Ec)Ffh and the NG domain of (Ec)FtsY was assayed in a buffer containing 25 mM HEPES-K pH 7.5, 10 mM Mg(OAc)2, 300 mM K(OAc), 1 mM DTT, and 2.5% (v/v) glycerol. The samples contained 5 µM (Ec)Ffh, 5 µM (Ec)FtsY-NG, 6 µM 4.5S RNA, 5 µM ΔEspP (EspP signal peptide sequence: MKK HKR ILA LCF LGL LQS SYS WAK KKK, custom synthesized from Genosphere Biotechnologies (France)[40], and 100 µM C12E8 (octaethylenglykol-monododecylether, Sigma Aldrich)[40] as indicated in figures. Alarmones ppGpp (Jena Bioscience, ≥95% purity) or pppGpp (Jena Bioscience, ≥85% purity) were supplemented in concentrations of 10, 25, 100, 250, 1000, 2500, or 10,000 µM as indicated in the figures. The enzymatic reactions were initiated by the addition of 1 mM GTP (Jena Bioscience, ≥99% purity) and allowed to proceed for 60 min at 37 °C, after which 40 µL double-distilled water were added immediately followed by 150 µL of chloroform. […] The nucleotide content was determined by high-performance liquid chromatography (HPLC) on an Agilent 1260 Infinity system (software: ChemStation Rev. B04.03-SP1) equipped with a Metrosep A Supp 5–150/4.0 column (Metrohm). Ten microliters of sample were injected and nucleotides eluted isocratically at 0.6 mL min^−1 flow rate of 100 mM (NH4)2CO3 pH 9.25 and detected at 260 nm wavelength. […]

[4] = molecular target: GTPase RbgA; parameters: method as in PMID 30366986; conditions: read-out: inhibitor constant Ki; cited from earlier work

T1 sequence (P0AGD7 1-296): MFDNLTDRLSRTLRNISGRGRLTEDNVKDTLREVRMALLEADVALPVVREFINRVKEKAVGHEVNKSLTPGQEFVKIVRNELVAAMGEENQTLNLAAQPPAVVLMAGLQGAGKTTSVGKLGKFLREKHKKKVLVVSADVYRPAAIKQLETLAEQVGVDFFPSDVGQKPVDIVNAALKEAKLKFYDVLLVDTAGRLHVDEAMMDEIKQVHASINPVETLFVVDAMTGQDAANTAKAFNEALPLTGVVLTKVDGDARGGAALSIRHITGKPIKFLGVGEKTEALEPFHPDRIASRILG

Q: Which Kd [1] does the source give for `Nc1nc2c(ncn2[C@@H]2O[C@H](COP(=O)(O)OP(=O)(O)O)[C@@H](OP(=O)(O)OP(=O)(O)O)[C@H]2O)c(=O)[nH]1` [ppGpp] here?
A: 7.9 ± 1.9 µM

Q: What about the “membrane targeting of FtsQ-RNCs” value [2] of the same compound?
A: completely blocked

Q: And the “membrane targeting of LepB-RNCs” value [2]?
A: completely blocked

Q: And the GTP hydrolysis [3]?
A: reduction of GTP hydrolysis

Q: And the Ki [4]?
A: 300 µM

Q: Which Kd [1] does the source give for `Nc1nc2c(ncn2[C@@H]2O[C@H](COP(=O)(O)OP(=O)(O)OP(=O)(O)O)[C@@H](OP(=O)(O)OP(=O)(O)O)[C@H]2O)c(=O)[nH]1` [pppGpp] here?
A: 13.9 ± 7.1 µM

Q: What about the “membrane targeting of FtsQ-RNCs” value [2] of the same compound?
A: completely blocked

Q: What about the “membrane targeting of LepB-RNCs” value [2] of the same compound?
A: completely blocked

Q: And the GTP hydrolysis [3]?
A: reduction of GTP hydrolysis

Q: And the Ki [4]?
A: 500 µM
